Experimental data as given in patent US8541407B2 (ArQule, Inc., priority 2010, dated 2013).
pIC50: −log10 of the molar value. Structures can show the parent of a compound that is named as a salt.

What was measured:
AN3-CA = test: MTS Assay, cell proliferation analysis (AN3-CA); format: cell-based; conditions: Homo sapiens; AN3-CA cells; 72 hours; 10 Percent FBS
Description: (§1) Cell proliferation analysis. Cell survival was determined by the MTS assay. Briefly, cells were plated in a 96-well plate at 2,000-10,000 cells per well, cultured for 24 hours in complete growth medium, and then treated with representative compounds of the invention or combinations thereof for 72 hours. MTS was added and incubated for 4 hours, followed by assessment of cell viability by using the microplate reader at 570 nm. Data were normalized to untreated controls and analyzed.

AKT1 [1] = target: T1, AKT1 (Homo sapiens (Human), UniProt P31749); test: Inactive Akt Alpha Screen Assay; conditions: non *labeled: Akt Alpha Screen assay; read-out: AKT1 biochemical assay, IC50
T1 sequence (P31749 whole entry): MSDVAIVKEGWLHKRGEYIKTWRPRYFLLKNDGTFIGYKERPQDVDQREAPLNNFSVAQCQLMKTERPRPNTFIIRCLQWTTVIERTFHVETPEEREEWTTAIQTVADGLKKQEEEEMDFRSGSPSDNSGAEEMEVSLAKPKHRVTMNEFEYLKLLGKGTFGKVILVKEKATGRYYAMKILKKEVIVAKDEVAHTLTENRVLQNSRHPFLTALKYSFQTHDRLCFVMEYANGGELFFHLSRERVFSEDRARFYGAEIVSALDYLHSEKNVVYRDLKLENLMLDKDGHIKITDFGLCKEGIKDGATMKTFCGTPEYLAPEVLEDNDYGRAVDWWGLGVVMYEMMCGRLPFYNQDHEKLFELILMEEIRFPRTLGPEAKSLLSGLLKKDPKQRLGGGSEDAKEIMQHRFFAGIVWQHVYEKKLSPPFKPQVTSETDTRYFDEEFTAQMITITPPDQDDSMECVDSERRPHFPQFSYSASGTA
Outline: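 AKT1 activated in situ by PDK1, MAPKAPK2, lipid vesicles and ATP, then phosphorylating biotinylated crosstide for 30 min at room temperature. Stopped with 10 mM EDTA; phosphopeptide detected by AlphaScreen using phospho-AKT substrate antibody (1:350), Protein A acceptor and streptavidin donor beads, 90 min dark, ex 640/em 570 nm.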

A2780 = test: MTS Assay, cell proliferation analysis (A2780); format: cell-based; conditions: Homo sapiens; A2780 cells; 72 hours; 10 Percent FBS
Description: as §1

IGROV-1 = test: MTS Assay, cell proliferation analysis (IGROV-1); format: cell-based; conditions: Homo sapiens; IGROV-1 cells; 72 hours; 10 Percent FBS
Description: as §1

AKT1 [2] = target: T1, AKT1; test: Inactive Akt HTRF Assay (AKT1); conditions: *labeled: Akt HTFR assay; read-out: AKT1 biochemical assay, IC50
Description: AKT1 activity was assayed using CisBio KinEASE™ HTRF Assay technology. This technology utilizes a proprietary biotinylated peptide substrate (STKS3), streptavidin labeled XL665 antibody, and STK antibody-Eu^3+-cryptate. AKT1 activation was achieved by the addition of the activating kinases PDK1 and MAPKAPK2, lipid vesicles, and ATP. The extent of STKS3 biotinylated peptide phosphorylation was determined using a phospho-STK antibody-Eu^3+-cryptate and streptavidin labeled XL665 antibody. XL665 was stimulated by Eu^3+-cryptate resulting in a TR-FRET signal proportional to the STKS3 phosphorylation level.
Representative compounds of the invention and controls ((S)-1-((5-(3-methyl-1H-indazol-5-yl)pyridin-3-yl)oxy)-3-phenylpropan-2-amine, 1-(1-(4-(7-phenyl-1H-imidazo[4,5-g]quinoxalin-6-yl)benzyl)piperidin-4-yl)-1H-benzo[d]imidazol-2(3H)-one, and 8-(4-(1-aminocyclobutyl)phenyl)-9-phenyl-[1,2,4]triazolo[3,4-f][1,6]naphthyridin-3(2H)-one) were prepared in 10% DMSO at 10-fold the desired final concentration, and added to each well of a reaction plate (Corning 96-well half-area solid black nonbinding surface plate) in a volume of 2.5 μL. […] After a 20 minute pre-incubation at room temperature, the kinase reaction was initiated by the addition of 5 μL of an activation mixture diluted in assay buffer containing biotinylated STKS3, PDK1, MAPKAPK2, DOPS/DOPC, PtdIns(3,4,5)P3, and ATP for final concentrations of 150 nM biotinylated STKS3, 1 nM (AKT1), 2.5 nM (AKT2), or 0.4 nM (AKT3) PDK1, 0.8 nM (AKT1), 2 nM (AKT2), or 0.3 nM (AKT3) MK2, 5.5 μM DOPS, 5.5 μM DOPC, 0.5 μM PtdIns(3,4,5)P3, and 50 μM ATP. The plates were incubated for 30 minutes at room temperature, and then stopped by the addition of 25 μL HTRF Detection Buffer containing phospho-STK antibody-Eu^3+-cryptate and streptavidin labeled XL665 antibody, at dilutions of 1:192 and 1:500 respectively. Final assay dilutions of phospho-STK antibody-Eu^3+-cryptate and streptavidin labeled XL665 antibody were 1:384 and 1:1,000 respectively. Assay plates were incubated for 60 minutes at room temperature, and the plates were read on a Perkin Elmer Envision Multilabel plate reader (excitation: 320 nm, emission I: 665 nm, emission II: 615 nm).

| pIC50 (AKT1 [1]) | pIC50 (A2780) | pIC50 (AKT1 [2]) | SMILES | pIC50 (AN3-CA) | pIC50 (IGROV-1) |
| --- | --- | --- | --- | --- | --- |
| 6.80 | 5.00 | – | COc1cccc(C(=O)Nc2ccc(-c3nnc4n3-c3cccnc3Nc3ccccc3-4)cc2)c1 [Example 27, N-(4-(9H-benzo[f]pyrido[2,3-b][1,2,4]triazolo[4,3-d][1,4]diazepin-3-yl)phenyl)-3-methoxybenzamide] | 4.60 | 4.64 |
| 7.00 | 5.22 | – | Cc1ccc(C(=O)Nc2ccc(-c3nnc4n3-c3cccnc3Nc3ccccc3-4)cc2)cc1 [Example 30, N-(4-(9H-benzo[f]pyrido[2,3-b][1,2,4]triazolo[4,3-d][1,4]diazepin-3-yl)phenyl)-4-methylbenzamide] | 5.15 | 4.55 |
| 6.96 | 4.85 | – | O=C(Nc1ccc(-c2nnc3n2-c2cccnc2Nc2ccccc2-3)cc1)c1ccc(F)cc1 [Example 56, N-(4-(9H-benzo[f]pyrido[2,3-b][1,2,4]triazolo[4,3-d][1,4]diazepin-3-yl)phenyl)-4-fluorobenzamide] | 4.55 | 4.15 |
| 7.08 | 4.77 | – | c1ccc(-c2nnc(C3CCN(Cc4ccc(-c5nnc6n5-c5cccnc5Nc5ccccc5-6)cc4)CC3)[nH]2)nc1 [Example 63, 3-(4-((4-(5-(pyridin-2-yl)-4H-1,2,4-triazol-3-yl)piperidin-1-yl)methyl)phenyl)-9H-benzo[f]pyrido[2,3-b][1,2,4]triazolo[4,3-d][1,4]diazepine] | 4.47 | 5.00 |
| 6.96 | 5.22 | – | CN(C)c1ccc(C(=O)NCc2ccc(-c3nnc4n3-c3cccnc3Nc3ccccc3-4)cc2)cc1 [Example 98, N-(4-(9H-benzo[f]pyrido[2,3-b][1,2,4]triazolo[4,3-d][1,4]diazepin-3-yl)benzyl)-4-(dimethylamino)benzamide] | 5.10 | < 4.00 |
| 7.00 | 4.51 | – | NC1(c2ccc(-c3nnc4n3-c3cccnc3Nc3ccccc3-4)cc2)CCC1 [Example 126, 1-(4-(9H-benzo[f]pyrido[2,3-b][1,2,4]triazolo[4,3-d][1,4]diazepin-3-yl)phenyl)cyclobutanamine] | 4.40 | 5.22 |
| 5.72 | 5.05 | – | ClCc1ccc(-c2nnc3n2-c2cccnc2Nc2ccccc2-3)cc1 [Example 127, 3-(4-(chloromethyl)phenyl)-9H-benzo[f]pyrido[2,3-b][1,2,4]triazolo[4,3-d][1,4]diazepine] | – | 4.89 |
| – | – | 4.39 | CC(C)(C)OC(=O)N1CCN(C(=O)c2ccc(-c3nnc4n3-c3cccnc3Nc3ccccc3-4)cc2)CC1 [Example 208, tert-butyl 4-(4-(9H-benzo[f]pyrido[2,3-b][1,2,4]triazolo[4,3-d][1,4]diazepin-3-yl)benzoyl)piperazine-1-carboxylate] | – | – |
| – | – | 4.77 | O=C(c1ccc(-c2nnc3n2-c2cccnc2Nc2ccccc2-3)cc1)N1CCNCC1 [Example 209, (4-(9H-benzo[f]pyrido[2,3-b][1,2,4]triazolo[4,3-d][1,4]diazepin-3-yl)phenyl)(piperazin-1-yl)methanone] | – | – |
| – | – | 4.25 | CC(C)(C)OC(=O)NC1CCN(C(=O)c2ccc(-c3nnc4n3-c3cccnc3Nc3ccccc3-4)cc2)CC1 [Example 210, tert-butyl (1-(4-(9H-benzo[f]pyrido[2,3-b][1,2,4]triazolo[4,3-d][1,4]diazepin-3-yl)benzoyl)piperidin-4-yl)carbamate] | – | – |
| – | – | 4.15 | NC1CCN(C(=O)c2ccc(-c3nnc4n3-c3cccnc3Nc3ccccc3-4)cc2)CC1 [Example 211, (4-(9H-benzo[f]pyrido[2,3-b][1,2,4]triazolo[4,3-d][1,4]diazepin-3-yl)phenyl)(4-aminopiperidin-1-yl)methanone] | – | – |
| – | – | 5.37 | CC(C)(C)OC(=O)NCCc1ccc(-c2nnc3n2-c2cccnc2Nc2ccccc2-3)cc1 [Example 212, tert-butyl 4-(9H-benzo[f]pyrido[2,3-b][1,2,4]triazolo[4,3-d][1,4]diazepin-3-yl)phenethylcarbamate] | – | – |
| – | – | 4.85 | CC(C)(C)OC(=O)NCc1ccc(-c2nnc3n2-c2cccnc2Nc2ccccc2-3)cc1 [Example 213, tert-butyl 4-(9H-benzo[f]pyrido[2,3-b][1,2,4]triazolo[4,3-d][1,4]diazepin-3-yl)benzylcarbamate] | – | – |
| – | – | 4.85 | NCCc1ccc(-c2nnc3n2-c2cccnc2Nc2ccccc2-3)cc1 [Example 214, 2-(4-(9H-benzo[f]pyrido[2,3-b][1,2,4]triazolo[4,3-d][1,4]diazepin-3-yl)phenyl)ethanamine] | – | – |
| – | – | 5.12 | COc1cccc(C(=O)NC2CCN(Cc3ccc(-c4nnc5n4-c4cccnc4Nc4ccccc4-5)cc3)CC2)c1 [Example 215, N-(1-(4-(9H-benzo[f]pyrido[2,3-b][1,2,4]triazolo[4,3-d][1,4]diazepin-3-yl)benzyl)piperidin-4-yl)-3-methoxybenzamide] | – | – |
| 6.89 | 4.80 | – | NC1(c2ccc(-c3nnc4n3-c3cccnc3Nc3ccc(Br)cc3-4)cc2)CCC1 [Example 219, 1-(4-(12-bromo-9H-benzo[f]pyrido[2,3-b][1,2,4]triazolo[4,3-d][1,4]diazepin-3-yl)phenyl)cyclobutanamine] | 4.35 | 5.00 |
| 7.02 | 4.89 | – | Brc1ccc2c(c1)-c1nnc(-c3ccc(CN4CCC(c5nnc(-c6ccccn6)[nH]5)CC4)cc3)n1-c1cccnc1N2 [Example 228, 12-bromo-3-(4-((4-(5-(pyridin-2-yl)-4H-1,2,4-triazol-3-yl)piperidin-1-yl)methyl)phenyl)-9H-benzo[f]pyrido[2,3-b][1,2,4]triazolo[4,3-d][1,4]diazepine] | 4.25 | 5.22 |

| SMILES | pIC50 (AKT1 [1]) | pIC50 (A2780) | pIC50 (AKT1 [2]) | pIC50 (AN3-CA) | pIC50 (IGROV-1) |
| --- | --- | --- | --- | --- | --- |
| O=c1[nH]c2ccccc2n1C1CCN(Cc2ccc(-c3nnc4n3-c3ccccc3Nc3ccccc3-4)cc2)CC1 [Example 128, 1-(1-(4-(9H-dibenzo[b,f][1,2,4]triazolo[4,3-d][1,4]diazepin-3-yl)benzyl)piperidin-4-yl)-1H-benzo[d]imidazol-2(3H)-one] | 6.03 | 4.96 | – | – | < 4.00 |
| CN(C)c1ccc(-c2nnc3n2-c2cccnc2Nc2ccccc2-3)cc1 [hydrochloride] | 5.80 | 4.77 | – | – | 4.05 |
